Data taken from PMC3731256, “Optimization of Substituted 6-Salicyl-4-Anilinoquinazoline Derivatives as Dual EGFR/HER2 Tyrosine Kinase Inhibitors” (PLoS ONE, 2013).

Experiments:
p38α = target: T1, p38α (Homo sapiens, UniProt Q16539); experiment: Serine/threonine kinase profiling ([γ-32P] ATP), p38α; type: biochemical
T1 construct: FLAG (N); made in house; host or cells: baculovirus expression system
Description: (§1) Assays for 4 serine/threonine kinases using radio labeled [γ-^32P] ATP (GE Healthcare, Piscataway, NJ) were performed in 96 well plates. Mitogen-activated protein kinase p38α (p38α), was expressed as N-terminal FLAG-tagged protein using a baculovirus expression system. Aurora-A and -B were expressed as N-terminal 6xHis tagged protein using a baculovirus expression system. CDK2/CycA was expressed as C-terminal 6His-tagged CDK2, and N-terminal GST-tagged Cyclin A protein using a baculovirus expression system.
(§2) The reaction conditions were optimized for each kinase: p38α (100 ng/well of enzyme, 1 μg/well of MBP (Wako Pure Chemical Ind., Osaka, Japan), 0.1 μCi/well of [γ-^32P] ATP, 60 min reaction at 30 ℃); Aurora-A and -B (50 ng/well of enzyme, 30 μM of Aurora substrate peptide, 0.2 μCi/well of [γ-^32P] ATP, 60 min reaction at room temperature); CDK2/CycA (1.8 mUnits/well of enzyme, 1 μg/well of Histone H1 (Calbiochem), 0.2 μCi/well of [γ-^32P] ATP, 20 min reaction at room temperature).
(§3) All the four enzyme reactions were performed in 25 mM HEPES, pH 7.5, 10 mM magnesium acetate, 1 mM dithiothreitol and 0.5 μM ATP containing optimized concentration of enzyme, substrate and radiolabeled ATP as described above in a total volume of 50 μl. […] The radioactivity was counted by a TopCount scintillation counter (PerkinElmer).

human EGFR = target: T2, human EGFR (Homo sapiens, UniProt P00533); experiment: EGFR kinase assay ([γ-32P] ATP, poly-Glu-Tyr); type: biochemical
T2 construct: the cytoplasmic domain (amino acids 669-1210) of human EGFR; FLAG (DYKDDDD) (N); made in house
T2 sequence (P00533 669-1210): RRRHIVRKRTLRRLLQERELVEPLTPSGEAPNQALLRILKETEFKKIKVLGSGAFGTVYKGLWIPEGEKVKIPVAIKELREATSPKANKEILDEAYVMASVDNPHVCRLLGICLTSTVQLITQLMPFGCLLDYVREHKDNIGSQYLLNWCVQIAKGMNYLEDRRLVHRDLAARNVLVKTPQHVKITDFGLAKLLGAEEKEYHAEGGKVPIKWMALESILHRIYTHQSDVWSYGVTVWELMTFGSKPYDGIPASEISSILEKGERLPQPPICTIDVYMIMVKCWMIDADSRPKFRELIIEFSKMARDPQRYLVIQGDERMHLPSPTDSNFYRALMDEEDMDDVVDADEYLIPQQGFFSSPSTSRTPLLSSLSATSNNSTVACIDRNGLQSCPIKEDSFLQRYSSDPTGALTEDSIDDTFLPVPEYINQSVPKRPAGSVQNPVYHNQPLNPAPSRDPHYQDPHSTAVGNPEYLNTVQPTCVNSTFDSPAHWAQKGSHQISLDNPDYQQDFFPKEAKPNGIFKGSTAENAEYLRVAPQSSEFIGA
Description: (§4) The expressed HER2 kinase and EGFR kinase were purified by anti-FLAG M2 affinity gel (Sigma-Aldrich, USA). The HER2 and EGFR kinase assays were performed using radiolabeled [γ-^32P] ATP (GEHealthcare, USA) in 96-well plates. The kinase reactions were performed in 50 mmol/L Tris-HCl, pH7.5, 5 mmol/L MnCl2, 0.01% Tween-20 and 2 mmol/L DTT containing 0.9 μCi of [γ-^32P] ATP per reaction, 50 μmol/L ATP, 5 μg/mL poly-Glu-Tyr (4:1) and 0.25 μg/mL of purified Her2 or EGFR cytoplasmic domain in a total volume of 50 μL. […] Kinase reactions were initiated by adding ATP. After the kinase reaction incubated for 10 minutes at room temperature, reactions were terminated by the addition of 10% (final concentration) trichloroacetic acid. The [γ-^32P]-phosphorylated proteins were filtered in a harvest plate (Millipore, USA) with a cell harvester (PerkinElmer, USA) and washed free of [γ-^32P] ATP with 3% phosphoric acid. The plates were dried, followed by the addition of 25 μL of MicroScintO (PerkinElmer, USA). Radioactivity was counted by a Topcount scintillation counter (PerkinElmer, USA).

H1781 cells = experiment: Antiproliferation WST-1 assay, H1781; type: cell-based; conditions: NCI-H1781, NSCLC, HER-2 G776ins V_G/C, lapatinib-resistant
Description: (§5) WST-1 is better than MTT for analyzing cell proliferation, because it can be reduced to soluble formazan by dehydrogenase in mitochondria and has little toxicity to cells. Cell proliferation was determined using WST-1 dye (Beyotime Inst Biotech, China) according to manufacture’s instructions. Brieﬂy, 5 × 10^3 cells per well were seeded in a 96-well plate, grown at 37 ℃ for 24 h, and then placed in serum-starved conditions for a further 6 h. Subsequently, cells were treated with compounds (Table 1) at increasing concentrations in the presence of 10% FBS for 24 or 48h. After 10 µL WST-1 dye was added to each well, cells were incubated at 37 ℃ for 2 h and the absorbance was ﬁnally determined at 450 nm using a microplate reader.

H1975 cells = experiment: Antiproliferation WST-1 assay, H1975; type: cell-based; conditions: Homo sapiens, NCI-H1975, NSCLC, EGFR L858R/T790M
Description: as §5

CDK2/CycA = target: T3, CDK2/CycA (Homo sapiens, UniProt P24941); experiment: Serine/threonine kinase profiling ([γ-32P] ATP), CDK2; type: biochemical
T3 construct: 6His (C); made in house; host or cells: baculovirus expression system
Description: as §1, §2, §3

human HER2 = target: T4, human HER2 (Homo sapiens, UniProt P04626); experiment: HER2 kinase assay ([γ-32P] ATP, poly-Glu-Tyr); type: biochemical; conditions: phosphorylation of poly-Glu-Tyr copolymer; mean, >1 determination; read-out: Enzyme activity IC50 against HER2 kinase
T4 construct: The cytoplasmic domain (amino acids 676-1255) of human HER2; FLAG (DYKDDDD) (N); made in house
T4 sequence (P04626 676-1255): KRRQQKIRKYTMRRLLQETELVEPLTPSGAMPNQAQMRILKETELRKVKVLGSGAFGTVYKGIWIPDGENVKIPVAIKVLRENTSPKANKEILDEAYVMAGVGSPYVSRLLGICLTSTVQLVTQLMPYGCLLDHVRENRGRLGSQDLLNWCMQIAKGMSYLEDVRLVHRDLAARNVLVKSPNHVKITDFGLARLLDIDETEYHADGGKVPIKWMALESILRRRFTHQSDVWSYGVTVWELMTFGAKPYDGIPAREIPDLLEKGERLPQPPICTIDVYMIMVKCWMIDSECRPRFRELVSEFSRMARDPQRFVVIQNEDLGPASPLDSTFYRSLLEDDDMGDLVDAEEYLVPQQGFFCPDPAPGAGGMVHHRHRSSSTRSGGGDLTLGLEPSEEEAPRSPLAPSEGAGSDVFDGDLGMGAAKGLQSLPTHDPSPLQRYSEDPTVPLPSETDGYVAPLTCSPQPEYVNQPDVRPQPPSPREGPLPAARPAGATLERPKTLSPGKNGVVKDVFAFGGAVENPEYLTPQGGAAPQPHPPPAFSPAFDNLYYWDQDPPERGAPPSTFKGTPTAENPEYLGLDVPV
Description: as §4

[1] = converted from IC50 by online calculator

T1 sequence (Q16539 whole entry): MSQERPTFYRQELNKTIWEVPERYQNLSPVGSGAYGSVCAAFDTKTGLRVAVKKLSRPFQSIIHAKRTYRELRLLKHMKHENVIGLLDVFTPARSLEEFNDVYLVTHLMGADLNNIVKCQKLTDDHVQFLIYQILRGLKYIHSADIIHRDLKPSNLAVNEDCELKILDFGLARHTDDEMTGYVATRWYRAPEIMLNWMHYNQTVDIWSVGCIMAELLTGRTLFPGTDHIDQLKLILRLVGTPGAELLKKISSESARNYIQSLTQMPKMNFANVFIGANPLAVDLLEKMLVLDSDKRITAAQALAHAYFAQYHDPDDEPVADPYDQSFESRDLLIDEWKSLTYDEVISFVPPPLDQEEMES

O=C(Nc1ccc2ncnc(Nc3cccc(Br)c3)c2c1)c1ccc(C(F)(F)F)cc1O [Compound 21, N-(4-(3-bromophenylamino)quinazolin-6-yl)-2-hydroxy-4-(trifluoromethyl)benzamide]
melting point: 289 to 291 °C
IC50 (p38α; ATP concentration = Km): 16100 ± 370 nM
pIC50 p38α (p38α; [1]): 4.79
pIC50 EGFR (human EGFR; [1]): 6.92
IC50 (human EGFR; phosphorylation of poly-Glu-Tyr copolymer, mean, >1 determination, read-out: Enzyme activity IC50 against EGFR kinase): 120 ± 12 nM
IC50 (H1781 cells): 770 ± 34 nM
IC50 (H1975 cells): 3300 ± 233 nM
IC50 (CDK2/CycA; ATP concentration = Km): 3500 nM
pIC50 CDK2 (CDK2/CycA; [1]): 5.46
IC50 (human HER2): 96 ± 4 nM
